Measurements: ChEMBL document CHEMBL3400056, “Novel thiazolo[3,2-b]-1,2,4-triazoles derived from naproxen with analgesic/anti-inflammatory properties: Synthesis, biological evaluation and molecular modeling studies” (Bioorg Med Chem, 2015)

Columns and labels:
Mus musculus [1] = assay: Analgesic activity in Swiss albino mouse assessed as time of licking paws at 100 mg/kg, po measured after 2 hrs by tail flick test relative to control; type: functional
[2] = target: T1, Prostaglandin G/H synthase 2 (Homo sapiens, UniProt P35354); assay: Inhibition of human recombinant COX-2 using […] as substrate incubated for 10 mins prior to arachidonic acid addition measured after 2 mins by EIA
T1 sequence (P35354 whole entry): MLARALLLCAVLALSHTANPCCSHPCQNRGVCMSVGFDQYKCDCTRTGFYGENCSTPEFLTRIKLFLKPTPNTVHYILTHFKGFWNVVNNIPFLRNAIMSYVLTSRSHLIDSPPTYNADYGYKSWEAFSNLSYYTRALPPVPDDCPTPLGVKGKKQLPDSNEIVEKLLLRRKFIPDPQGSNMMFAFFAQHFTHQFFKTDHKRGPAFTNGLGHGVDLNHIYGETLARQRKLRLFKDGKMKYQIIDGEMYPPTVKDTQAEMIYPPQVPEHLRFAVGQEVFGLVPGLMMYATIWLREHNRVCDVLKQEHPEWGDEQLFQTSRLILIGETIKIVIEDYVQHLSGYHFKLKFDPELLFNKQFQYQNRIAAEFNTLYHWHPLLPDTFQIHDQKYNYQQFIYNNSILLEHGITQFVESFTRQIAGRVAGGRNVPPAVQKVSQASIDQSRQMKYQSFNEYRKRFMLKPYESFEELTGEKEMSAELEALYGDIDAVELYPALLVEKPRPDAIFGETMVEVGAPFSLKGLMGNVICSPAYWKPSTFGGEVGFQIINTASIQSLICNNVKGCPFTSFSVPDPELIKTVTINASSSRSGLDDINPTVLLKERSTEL

Mus musculus [3] = assay: Analgesic activity in Swiss albino mouse assessed as latancy of withdrawing tail at 50 mg/kg, po measured after 2 hrs by tail flick test relative to control; type: functional
Mus musculus [4] = assay: Analgesic activity in Swiss albino mouse assessed as latancy of withdrawing tail at 100 mg/kg, po measured after 2 hrs by tail flick test relative to control; type: functional
Mus musculus [5] = assay: Gastrointestinal toxicity in Swiss albino mouse assessed as ulcer index at 100 mg/kg, po measured after 2 hrs; type: organism-based; design: dose 100 mg/kg, route oral; settings: in vivo
Mus musculus [6] = assay: Antiinflammatory activity in Swiss albino mouse assessed as inhibition of carrageenan-induced paw edema at 50 mg/kg, po administered 1 hr prior to carrageenan challenge measured after 2 hrs relative to control; type: functional; design: scale not given: the % may be the effect or the level left
Mus musculus [7] = assay: Antiinflammatory activity in Swiss albino mouse assessed as inhibition of carrageenan-induced paw edema at 100 mg/kg, po administered 1 hr prior to carrageenan challenge measured after 2 hrs relative to control; type: functional; design: scale not given: the % may be the effect or the level left
Mus musculus [8] = assay: Acute toxicity in Swiss albino mouse assessed as weight loss at 50 to 100 mg/kg, po measured up to 14 days; type: organism-based; design: dose 50-100 mg/kg, route oral; settings: in vivo, 336 h
[9] = target: T2, Prostaglandin G/H synthase 1 (Ovis aries, UniProt P05979); assay: Inhibition of ovine recombinant COX-1 using […] as substrate incubated for 10 mins prior to arachidonic acid addition measured after 2 mins by EIA
T2 sequence (P05979 whole entry): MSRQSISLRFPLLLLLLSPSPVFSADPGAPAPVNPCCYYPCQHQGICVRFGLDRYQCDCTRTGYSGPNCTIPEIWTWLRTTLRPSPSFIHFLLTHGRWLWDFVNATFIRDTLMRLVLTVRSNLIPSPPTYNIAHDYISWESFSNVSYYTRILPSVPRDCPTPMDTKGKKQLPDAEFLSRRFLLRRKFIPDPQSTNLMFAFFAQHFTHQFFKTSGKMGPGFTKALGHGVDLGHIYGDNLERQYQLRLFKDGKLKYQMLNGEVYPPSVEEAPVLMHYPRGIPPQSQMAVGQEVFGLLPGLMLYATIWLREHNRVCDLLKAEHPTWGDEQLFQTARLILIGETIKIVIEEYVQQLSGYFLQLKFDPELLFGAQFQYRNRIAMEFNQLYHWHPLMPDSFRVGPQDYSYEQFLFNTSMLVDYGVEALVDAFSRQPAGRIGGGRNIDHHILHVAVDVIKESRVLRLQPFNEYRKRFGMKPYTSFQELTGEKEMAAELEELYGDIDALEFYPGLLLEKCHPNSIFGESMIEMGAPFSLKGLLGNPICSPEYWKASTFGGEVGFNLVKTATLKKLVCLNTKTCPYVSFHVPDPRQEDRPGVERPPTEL

[10] = Selectivity ratio of IC50 for ovine recombinant COX-1 to IC50 for human recombinant COX-2
Mus musculus [11] = assay: Acute toxicity in Swiss albino mouse assessed as mortality at 50 to 100 mg/kg, po measured after 6 hrs to 14 days; type: organism-based; design: dose 50-100 mg/kg, route oral; settings: in vivo
Mus musculus [12] = assay: Analgesic activity in Swiss albino mouse assessed as time of licking paws at 50 mg/kg, po measured after 2 hrs by tail flick test relative to control; type: functional
Mus musculus [13] = assay: Gastrointestinal toxicity in Swiss albino mouse assessed as ulcer index at 50 mg/kg, po measured after 2 hrs; type: organism-based; design: dose 50 mg/kg, route oral; settings: in vivo
Mus musculus [14] = assay: Acute toxicity in Swiss albino mouse assessed as behavioral changes at 50 to 100 mg/kg, po measured up to 14 days; type: organism-based; design: dose 50-100 mg/kg, route oral; settings: in vivo, 336 h
[15] = Acute toxicity in Swiss albino mouse assessed as mortality at 50 mg/kg, po after 12 hrs; type: organism-based; design: dose 50 mg/kg, route oral; settings: in vivo

| Compound | MPE (Mus musculus [1]) [%] | IC50 [2] [µM] | MPE (Mus musculus [3]) [%] | MPE (Mus musculus [4]) [%] | UI (Mus musculus [5]) | Activity (Mus musculus [6]) [%] | Activity (Mus musculus [7]) [%] | Activity (Mus musculus [8]) | IC50 [9] [µM] | Ratio IC50 [10] | Activity (Mus musculus [11]) | MPE (Mus musculus [12]) [%] | UI (Mus musculus [13]) | Activity (Mus musculus [14]) | mortality at 12 h [15] [%] |
| --- | --- | --- | --- | --- | --- | --- | --- | --- | --- | --- | --- | --- | --- | --- | --- |
| COc1ccc2cc(C(C)c3nc4s/c(=C\c5ccc(C(C)C)cc5)c(=O)n4n3)ccc2c1 (configuration not stated) | 22 | > 100 | 36.9 | 17.9 | 2.4 | 29.3 | 43.3 | Non-toxic | 79.6 | < 0.796 | Non-toxic | 27.6 | 2.6 | Non-toxic |  |
| COc1ccc2cc(C(C)c3nc4s/c(=C\c5ccc(-c6ccccc6)cc5)c(=O)n4n3)ccc2c1 (configuration not stated) | 39.8 | > 100 | 47.1 | 49.1 | 2.6 | 45.3 | 40.9 | Non-toxic | > 100 |  | Non-toxic | 42.1 | 1.3 | Non-toxic |  |
| COc1ccc2cc(C(C)c3nc4s/c(=C\C(C)=C\c5ccccc5)c(=O)n4n3)ccc2c1 (configuration not stated) | 25.9 | 24.6 | 45.3 | 41.1 | 2.3 | 35.4 | 30.7 | Non-toxic | 64.7 | 2.63 | Non-toxic | 28.7 | 2 | Non-toxic |  |
| COc1ccc2cc(C(C)c3nc4s/c(=C\c5ccc(C)s5)c(=O)n4n3)ccc2c1 (configuration not stated) | 36 | 20.5 | 32.8 | 43.5 | 2.3 | 36.7 | 31.1 | Non-toxic | > 100 | > 4.87 | Non-toxic | 34.9 | 1.8 | Non-toxic |  |
| COc1ccc2cc(C(C)c3nc4s/c(=C\c5ccc(Br)s5)c(=O)n4n3)ccc2c1 (configuration not stated) | 24.4 | 17.3 | 38 | 41.1 | 2.6 | 51.4 | 51.2 | Non-toxic | 39.8 | 2.3 | Non-toxic | 29 | 1.8 | Non-toxic |  |
| COc1ccc2c(c1)c(CC(=O)O)c(C)n2C(=O)c1ccc(Cl)cc1 [INDOMETHACIN] | 40.5 |  | 46.9 | 46.2 | 5.1 | 46.8 | 50.9 |  |  |  |  | 35.2 | 4 |  | 71 |
| COc1ccc2cc(C(C)c3nc4s/c(=C\c5cccc6ccccc56)c(=O)n4n3)ccc2c1 (configuration not stated) | 36.8 | 68.2 | 51.9 | 53.8 | 2.2 | 43 | 39.6 | Non-toxic | 85.6 | 1.25 | Non-toxic | 39.7 | 2.6 | Non-toxic |  |
